Source: patent US9258995B2, “Organ cold storage composition and methods of use” (BOARD OF TRUSTEES OF THE UNIVERSITY OF ARKANSAS, priority 2009, dated 2016)

Test system: rat kidneys
Assay: Nitrotyrosine immunohistochemistry during CS
Conditions: 4 h CS, 100 μM
Procedure: All animals were treated according to the National Institutes of Health Guide for the Care and Use of Laboratory Animals and the University of Arkansas for Medical Sciences Institutional Animal Care and Use Committee guidelines. Male Fischer 344 inbred rats (Charles Rivers Laboratories, Inc., Wilmington, Mass.) weighing between 250 and 300 g were anesthetized with ethrane, followed by shaving and prepping with betadine. […] Bulldog clamps were placed on the aorta and vena cava (proximal and distal to the renal vessels) to prevent blood flow to the kidneys. A 22-gauge surgical needle was used to puncture the rat's aorta to flush the renal grafts with saline (10 ml per kidney) using a small catheter. Once the kidneys started to turn light brown (perfusion), another vent was formed in the vena cava to allow blood flow from the kidneys. […]
NRK cells (groups 1-4) were assessed for nitrotyrosine formation as previously described. […] Nitrotyrosine staining was evaluated and captured with equal exposure times using a Nikon Eclipse 800 microscope (40×oil). Images were quantified by averaging the mean intensity fluorescence of five random cells in three different fields using Nikon N is Elements software. Renal tissue sections were assessed for the presence of nitrotyrosine protein adducts by nitrotyrosine immunohistochemistry. […]

COC1=C(OC)C(=O)C(CCCCCCCCCC[P+](c2ccccc2)(c2ccccc2)c2ccccc2)=C(C)C1=O [MitoQ, mitoquinone]
nitrotyrosine formation (immunohistochemistry): less nitrotyrosine formation
